According to ChEMBL document CHEMBL2434843, “Synthesis and evaluation of α-ketotriazoles and α,β-diketotriazoles as inhibitors of Mycobacterium tuberculosis” (Eur J Med Chem, 2013):
≈ marks a conversion by molar mass, not a printed value.

How the values were obtained:
Format in all cases: functional
[1] = tested on: Mycobacterium tuberculosis; experiment: Antitubercular activity against multidrug-resistant Mycobacterium tuberculosis IC3 assessed as growth inhibition by BACTEC MGIT 960 method
[2] = tested on: Mycobacterium tuberculosis; experiment: Antitubercular activity against multidrug-resistant Mycobacterium tuberculosis IC2 assessed as growth inhibition by BACTEC MGIT 960 method
[3] = tested on: Mycobacterium tuberculosis; experiment: Antitubercular activity against multidrug-resistant Mycobacterium tuberculosis IC1 assessed as growth inhibition by BACTEC MGIT 960 method

Row | Structure (SMILES) | MIC [1] [µM] | MIC [2] [µM] | MIC [3] [µM]
1 | O=C(C(=O)c1ccc(Cl)cc1Cl)c1cn(Cc2ccccc2)nn1 | 7.6 (≈ 2.74 µg/mL) | 7.6 (≈ 2.74 µg/mL) | 7.6 (≈ 2.74 µg/mL)
2 | COc1ccc(C(=O)C(=O)c2cn(Cc3ccccc3)nn2)cc1 | 6.9 (≈ 2.22 µg/mL) | 6.9 (≈ 2.22 µg/mL) | 6.9 (≈ 2.22 µg/mL)
